According to US20220324865A1 (Bayer Aktiengesellschaft, priority 2018, published 2022):

Each molecule was assayed against T1, human EP3 receptor (Homo sapiens, UniProt P43115) (assay: Cellular in vitro assay for determining EP3 receptor activity (human EP3 cell line, sulprostone-stimulated calcium luminescence)). Conditions: CHO cells expressing human EP3 and mitochondrial Clytin; antagonist mode, sulprostone at EC50; read-out: EP3 CHO mtCLY ANTAG IC50.
T1 construct: expressed in transfected cells; host or cells: CHO K1 (Chinese Hamster Ovary), stably co-transfected with Galpha16 and mitochondrial clytin
T1 sequence (P43115 1-390): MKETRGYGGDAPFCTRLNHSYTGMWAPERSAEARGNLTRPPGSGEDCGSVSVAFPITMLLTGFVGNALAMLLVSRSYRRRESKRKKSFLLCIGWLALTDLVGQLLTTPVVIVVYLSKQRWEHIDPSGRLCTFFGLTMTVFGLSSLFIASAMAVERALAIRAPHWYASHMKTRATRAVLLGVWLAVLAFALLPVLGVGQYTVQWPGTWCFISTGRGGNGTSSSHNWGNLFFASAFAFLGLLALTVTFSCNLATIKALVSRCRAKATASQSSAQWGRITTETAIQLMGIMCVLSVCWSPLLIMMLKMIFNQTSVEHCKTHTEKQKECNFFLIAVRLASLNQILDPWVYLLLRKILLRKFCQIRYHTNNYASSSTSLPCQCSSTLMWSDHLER
Format: cell-based
How it was run: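 Antagonist activity was measured as inhibition of the luminescent calcium signal elicited by EC50 sulprostone, following 10 min compound pretreatment. The cell line was recombinant CHO K1 co-expressing human EP3, Gα16 and the photoprotein Clytin, reconstituted with coelenterazine.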

Question: `O=C(NCCc1ccc(F)cc1)c1cc2c(=O)[nH]c(-c3ccc4ccccc4c3)cn2n1` [Example 2-7, N-[2-(4-Fluorophenyl)ethyl]-6-(2-naphthyl)-4-oxo-4,5-dihydropyrazolo[1,5-a]pyrazine-2-carboxamide] was tested. Which IC50 did it give?
Answer: The IC50 was 4.7 nM.

Question: For `O=C(NC1(c2ccc(F)cc2)CC1)c1cc2c(=O)[nH]c(-c3ccc4c(c3)OCCO4)cn2n1` [6-23], which IC50 is on record?
Answer: Its IC50 is 3.1 nM.

Question: For `O=C(NC(CO)c1ccc2c(c1)OCO2)c1cc2c(=O)[nH]c(-c3ccc4ccccc4c3)cn2n1` (centres unmarked) [Example 2-28, N-[1-(1,3-Benzodioxol-5-yl)-2-hydroxyethyl]-6-(2-naphthyl)-4-oxo-4,5-dihydropyrazolo[1,5-a]pyrazine-2-carboxamide], which IC50 is on record?
Answer: Its IC50 is 0.93 nM.

Question: How did the IC50 turn out when `Cc1cccc2ncc(-c3cn4nc(C(=O)N[C@@H](C)c5cnccn5)c(C(C)C)c4c(=O)[nH]3)cc12` [Example 4-28, 6-(5-Methylquinolin-3-yl)-4-oxo-3-(propan-2-yl)-N-[(7S)-1-(pyrazin-2-yl)ethyl]-4,5-dihydropyrazolo[1,5-a]pyrazine-2-carboxamide] was run?
Answer: Its IC50 is 2.15 nM.

Question: For `Cc1ccc(-c2cn3nc(C(=O)NC(C)c4ccc(O)cc4)cc3c(=O)[nH]2)cc1C` (centres unmarked) [Example 1-137, 6-(3,4-Dimethylphenyl)-N-[1-(4-hydroxphenyl)ethyl]-4-oxo-5H-pyrazolo[1,5-a]pyrazine-2-carboxamide], which IC50 is on record?
Answer: The IC50 was 2.9 nM.

Question: With `Cc1cccc2ncc(-c3cn4nc(C(=O)NCC5CNC(=O)O5)c(C(C)C)c4c(=O)[nH]3)cc12` (centres unmarked) [Example 4-42, 3-Isopropyl-6-(5-methyl-3-quinolyl)-4-oxo-N-[(2-oxooxazolidin-5-yl)methyl]-5H-pyrazolo[1,5-a]pyrazine-2-carboxamide] as the molecule, how does the IC50 read?
Answer: Its IC50 is 4.45 nM.

Question: With `Cc1cc(-c2cn3nc(C(=O)N[C@@H](C)C(C)C)c(C(F)(F)F)c3c(=O)[nH]2)ccc1Cl` [6-215] as the molecule, how does the IC50 read?
Answer: Its IC50 is 2.7 nM.

Question: With `Cc1c(C(=O)NCCn2ccc(C3CC3)n2)nn2c(C)c(-c3ccc4ccccc4c3)[nH]c(=O)c12` [Example 3-1, N-[2-(3-Cyclopropyl-1H-pyrazol-1-yl)ethyl]-3,7-dimethyl-6-(naphthalen-2-yl)-4-oxo-4,5-dihydropyrazolo[1,5-a]pyrazine-2-carboxamide] as the molecule, how does the IC50 read?
Answer: Its IC50 is 0.79 nM.

Question: For `Cc1ccc(-c2cn3nc(C(=O)NC(CN(C)C)c4ccc(F)cc4)c(C4CC4)c3c(=O)[nH]2)cc1C` (single isomer, unassigned) [6-446], which IC50 is on record?
Answer: Its IC50 is 8.05 nM.

Question: Which IC50 does the source give for `Cc1cc(-c2cn3nc(C(=O)N[C@@H](C)C4CC4)c(C(F)(F)C(F)(F)F)c3c(=O)[nH]2)ccc1Cl` [6-478] here?
Answer: The IC50 was 1.2 nM.

Question: With `COc1ccc(C2(NC(=O)c3cc4c(=O)[nH]c(-c5ccc6ccccc6c5)cn4n3)CN(C(=O)OC(C)(C)C)C2)cc1` [Example 1-57, tert.-Butyl 3-(4-methoxyphenyl)-3-({[6-(naphthalen-2-yl)-4-oxo-4,5-dihydropyrazolo[1,5-a]pyrazin-2-yl]carbonyl}amino)azetidine-1-carboxylate] as the molecule, how does the IC50 read?
Answer: Its IC50 is 4.9 nM.

Question: How did the IC50 turn out when `CC(C)(O)[C@@H](NC(=O)c1nn2cc(-c3cc(Cl)c(Cl)cc3F)[nH]c(=O)c2c1C1CC1)c1ccc(F)cc1` [6-583] was run?
Answer: The IC50 was 0.63 nM.

Question: For `CC(C)(O)[C@@H](NC(=O)c1nn2cc(-c3ccc(Cl)cc3)[nH]c(=O)c2c1C1CC1)c1ccc(F)cc1` [6-676], which IC50 is on record?
Answer: The IC50 was 3.55 nM.

Question: For `Cc1ccc(-c2cn3nc(C(=O)NCCN(C)C4CC4)c(C4CC4)c3c(=O)[nH]2)cc1C` [6-661], which IC50 is on record?
Answer: The IC50 was 1.43 nM.

Question: Which IC50 does the source give for `CC(C)(O)[C@@H](NC(=O)c1nn2cc(-c3ccc(C(F)(F)F)c(Cl)c3)[nH]c(=O)c2c1C1CC1)c1ccc(F)cc1` [6-598] here?
Answer: The IC50 was 2.35 nM.

Question: With `CN1CC(NC(=O)c2nn3cc(-c4ccc(Cl)c(C(F)F)c4)[nH]c(=O)c3c2C2CC2)(c2ccc(F)cc2)C1` [6-665] as the molecule, how does the IC50 read?
Answer: Its IC50 is 3.1 nM.

Question: For `CC[C@@H](C)NC(=O)c1nn2cc(-c3ccc(C(F)(F)F)c(C)c3)[nH]c(=O)c2c1C1CC1` [Example 1-138, N-[(2R)-Butan-2-yl]-3-cyclopropyl-6-[3-methyl-4-(trifluoromethyl)phenyl]-4-oxo-4,5-dihydropyrazolo[1,5-a]pyrazine-2-carboxamide], which IC50 is on record?
Answer: The IC50 was 6.85 nM.

Question: For `COc1ccc(C(CCO)NC(=O)c2nn3c(C)c(-c4ccc5ccccc5c4)[nH]c(=O)c3c2C)cc1` (centres unmarked) [Example 3-37, N-[3-Hydroxy-1-(4-methoxyphenyl)propyl]-3,7-dimethyl-6-(2-naphthyl)-4-oxo-5H-pyrazolo[1,5-a]pyrazine-2-carboxamide], which IC50 is on record?
Answer: Its IC50 is 2.4 nM.

Question: How did the IC50 turn out when `CC[C@@H](COC)NC(=O)c1nn2cc(-c3ccc(Cl)c(C)c3)[nH]c(=O)c2c1C1CC1` [6-327] was run?
Answer: The IC50 was 0.48 nM.

Question: With `Cc1c(C(=O)NC2(c3ccc(F)cc3)CCN(CC(F)(F)F)CC2)nn2cc(-c3ccc4ccccc4c3)[nH]c(=O)c12` [6-5] as the molecule, how does the IC50 read?
Answer: Its IC50 is 4.85 nM.

Question: For `Cc1ccc(-c2cn3nc(C(=O)N[C@@H](c4ccc(F)cc4)C(C)(C)O)c(C(F)(F)C(F)(F)F)c3c(=O)[nH]2)cc1Cl` [6-488], which IC50 is on record?
Answer: Its IC50 is 0.57 nM.

Question: For `Cc1cc(-c2cn3nc(C(=O)NC4(c5ccc(F)cc5)CN(C5CC5)C4)c(C(F)(F)F)c3c(=O)[nH]2)ccc1Cl` [6-238], which IC50 is on record?
Answer: The IC50 was 1.4 nM.

Question: For `Cc1nc(-c2cn3nc(C(=O)N[C@@H](c4ccc(F)cc4)C(F)(F)CO)c(C4CC4)c3c(=O)[nH]2)ccc1Cl` [6-591], which IC50 is on record?
Answer: The IC50 was 1.3 nM.

Question: Which IC50 does the source give for `COCc1c(C(=O)N[C@@H](C)C2CC2)nn2cc(-c3ccc(Cl)c(C)c3)[nH]c(=O)c12` [6-622] here?
Answer: The IC50 was 1.25 nM.

Question: For `N#Cc1c(C(=O)NC2(c3ccccc3)CC2)nn2cc(-c3ccc4ccccc4c3)[nH]c(=O)c12` [Example 3-49, 3-Cyano-6-(naphthalen-2-yl)-4-oxo-N-(1-phenylcyclopropyl)-4,5-dihydropyrazolo[1,5-a]pyrazine-2-carboxamide], which IC50 is on record?
Answer: Its IC50 is 1.35 nM.

Question: How did the IC50 turn out when `Cc1ccc([C@@H](C)NC(=O)c2nn3c(C)c(-c4ccc5ccccc5c4)[nH]c(=O)c3c2C)cc1` [Example 3-19, 3,7-Dimethyl-N-[(7R)-1-(4-methylphenyl)ethyl]-6-(naphthalen-2-yl)-4-oxo-4,5-dihydropyrazolo[1,5-a]pyrazine-2-carboxamide] was run?
Answer: Its IC50 is 1.55 nM.

Question: `COc1ccc([C@@H](C)NC(=O)c2cc3c(=O)[nH]c(-c4ccc5c(c4)COCC5)cn3n2)cn1` [Example 1-51, 6-(3,4-Dihydro-1H-isochromen-7-yl)-N-[(1R)-1-(6-methoxypyridin-3-yl)ethyl]-4-oxo-4,5-dihydropyrazolo[1,5-a]pyrazine-2-carboxamide] was tested. Which IC50 did it give?
Answer: Its IC50 is 4 nM.

Question: `COCc1c(C(=O)N[C@@H](c2ccc(F)cc2)C(F)(F)CO)nn2cc(-c3ccc(Cl)c(C)c3)[nH]c(=O)c12` [6-621] was tested. Which IC50 did it give?
Answer: The IC50 was 1.15 nM.

Question: With `Cc1ccc(-c2cn3nc(C(=O)NCC(O)C(F)(F)F)c(C)c3c(=O)[nH]2)cc1F` (racemic) [6-409] as the molecule, how does the IC50 read?
Answer: Its IC50 is 7.12 nM.

Question: Which IC50 does the source give for `Cc1cccc2ncc(-c3cn4nc(C(=O)N[C@@H](c5ccc(F)cc5)C(C)(C)O)c(C(F)(F)F)c4c(=O)[nH]3)cc12` [6-546] here?
Answer: The IC50 was 3.13 nM.

Question: `Cc1c(C(=O)NC2(c3ccc(F)cc3)CC2)nn2cc(-c3ccc4ccccc4c3)[nH]c(=O)c12` [6-71] was tested. Which IC50 did it give?
Answer: The IC50 was 2.85 nM.

Question: With `COCc1c(C(=O)N[C@@H](c2ccc(F)cc2)C(C)(C)O)nn2cc(-c3ccc(Cl)c(C)c3)[nH]c(=O)c12` [6-623] as the molecule, how does the IC50 read?
Answer: Its IC50 is 3.15 nM.

Question: How did the IC50 turn out when `CN1CC(NC(=O)c2cc3c(=O)[nH]c(-c4ccc5c(c4)CCCC5)cn3n2)(c2ccc(F)cc2)C1` [Example 1-99, N-[3-(4-Fluorophenyl)-1-methylazetidin-3-yl]-4-oxo-6-(5,6,7,8-tetrahydronaphthalen-2-yl)-4,5-dihydropyrazolo[1,5-a]pyrazine-2-carboxamide] was run?
Answer: The IC50 was 4 nM.

Question: `C[C@@H](NC(=O)c1cc2c(=O)[nH]c(-c3ccc4cccc(F)c4c3)cn2n1)c1ccc(F)cc1` [6-38] was tested. Which IC50 did it give?
Answer: Its IC50 is 1.45 nM.

Question: With `CC(NC(=O)c1nn2cc(-c3ccc4ccccc4c3)[nH]c(=O)c2c1C#N)c1ccc(Cl)c(Cl)c1` (centres unmarked) [Example 3-54, 3-Cyano-N-[1-(3,4-dichlorophenyl)ethyl]-6-(2-naphthyl)-4-oxo-5H-pyrazolo[1,5-a]pyrazine-2-carboxamide] as the molecule, how does the IC50 read?
Answer: Its IC50 is 6.95 nM.

Question: For `CC(NC(=O)c1cc2c(=O)[nH]c(-c3ccc4ccccc4c3)cn2n1)c1ccc(F)cc1` (centres unmarked) [6-19], which IC50 is on record?
Answer: Its IC50 is 3.1 nM.

Question: With `Cc1ccc(-c2[nH]c(=O)c3c(C(F)(F)F)c(C(=O)N[C@H](CCO)c4ccc(F)cc4)nn3c2C)cc1C` [Example 1-122, 6-(3,4-Dimethylphenyl)-N-[(1R)-1-(4-fluorophenyl)-3-hydroxpropyl]-7-methyl-4-oxo-3-(trifluoromethyl)-4,5-dihydropyrazolo[1,5-a]pyrazine-2-carboxamide] as the molecule, how does the IC50 read?
Answer: Its IC50 is 4.13 nM.

Question: Which IC50 does the source give for `COCc1c(C(=O)N[C@@H](c2ccc(F)cc2)C(C)(C)O)nn2cc(-c3ccc(C)c(Cl)c3)[nH]c(=O)c12` [6-627] here?
Answer: Its IC50 is 0.58 nM.

Question: `CN(C)C[C@@H](NC(=O)c1cc2c(=O)[nH]c(-c3ccc4c(c3F)OCCO4)cn2n1)c1ccccc1` [Example 1-109, N-[(1S)-2-(Dimethylamino)-1-phenylethyl]-6-(5-fluoro-2,3-dihydro-1,4-benzodioxin-6-yl)-4-oxo-4,5-dihydropyrazolo[1,5-a]pyrazine-2-carboxamide] was tested. Which IC50 did it give?
Answer: The IC50 was 5.97 nM.

Question: For `Cc1cc(C)nc(CNC(=O)c2nn3cc(-c4cnc5cccc(C)c5c4)[nH]c(=O)c3c2C(C)C)n1` [Example 4-60, N-[(4,6-Dimethylpyrimidin-2-yl)methyl]-6-(5-methylquinolin-3-yl)-4-oxo-3-(propan-2-yl)-4,5-dihydropyrazolo[1,5-a]pyrazine-2-carboxamide], which IC50 is on record?
Answer: The IC50 was 2.1 nM.

Question: For `CCCNC(=O)c1cc2c(=O)[nH]c(-c3ccc4cccc(F)c4c3)cn2n1` [6-40], which IC50 is on record?
Answer: Its IC50 is 7.5 nM.
